SMILES strings stand for the structures. Several values for one entry are separate records, joined by “and”; a condition that tells them apart may be missing. Equal entries are not always repeated. Inconclusive results and toxic doses are left out.

For this assay, the system named is P388 leukemia ip, CD2F1 mice, survival T/C. The experiment in a line: NCI In Vivo Anticancer Drug Screen. Data for tumor model P388 Leukemia (intraperitoneal) in CD2F1 (CDF1) mice. Particulars: endpoint: median survival time, higher = longer survival. The method in brief:
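Mice carrying the transplanted tumor received test compound or vehicle. Survival was recorded in each group, and the value is the treated-group measurement divided by that of the vehicle-treated control group.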

The mark [1] stands for this setting: dose: 25.0 mg/kg/injection, schedule: Q01DX005 (ip), vehicle: Klucel (hydroxypropylcellulose) (HPC).
Setting [2] is: dose: 50.0 mg/kg/injection, schedule: Q01DX005 (ip), vehicle: Klucel (hydroxypropylcellulose) (HPC).
Setting [3] is: dose: 100.0 mg/kg/injection, schedule: Q01DX005 (ip), vehicle: Klucel (hydroxypropylcellulose) (HPC).
Setting [4] is: dose: 200.0 mg/kg/injection, schedule: Q01DX005 (ip), vehicle: Klucel (hydroxypropylcellulose) (HPC).
The mark [5] stands for this setting: dose: 25.0 mg/kg/injection, schedule: Q01DX005 (ip), vehicle: saline with Tween-80.
Setting [6] is: dose: 50.0 mg/kg/injection, schedule: Q01DX005 (ip), vehicle: saline with Tween-80.
[7] abbreviates: dose: 100.0 mg/kg/injection, schedule: Q01DX005 (ip), vehicle: saline with Tween-80.
Setting [8] is: dose: 50.0 mg/kg/injection, schedule: Q01DX009 (ip), vehicle: saline with Tween-80.
The mark [9] stands for this setting: dose: 100.0 mg/kg/injection, schedule: Q01DX009 (ip), vehicle: saline with Tween-80.
Where [10] appears, read: dose: 200.0 mg/kg/injection, schedule: Q01DX009 (ip), vehicle: saline with Tween-80.

Consider `COc1cc2c(c(OC)c1OC)-c1ccc(O)c(=O)cc1C(N)CC2` (configuration not stated), for which the T/C runs as follows: (dose: 3.12 mg/kg/injection, schedule: Q01DX008 (ip), vehicle: saline) 101 % of control and 97 % of control; (dose: 6.25 mg/kg/injection, schedule: Q01DX008 (ip), vehicle: saline) 100 % of control and 102 % of control; (dose: 12.5 mg/kg/injection, schedule: Q01DX008 (ip), vehicle: saline) 102 % of control and 105 % of control; (dose: 25.0 mg/kg/injection, schedule: Q01DX008 (ip), vehicle: saline) 102 % of control and 105 % of control; (dose: 50.0 mg/kg/injection, schedule: Q01DX008 (ip), vehicle: saline) 105 % of control and 110 % of control; (dose: 100.0 mg/kg/injection, schedule: Q01DX008 (ip), vehicle: saline) 109 % of control and 113 % of control.

For the compound `Oc1cc2c(cc1-c1cc3c(cc1O)OCO3)OCO2`, the T/C by setting is: under setting [1], 100 % of control; under setting [2], 100 % of control; under setting [3], 105 % of control; under setting [4], 100 % of control.

As for `CC1C=NNC1=O` (configuration not stated), the T/C (dose: 6.25 mg/kg/injection, schedule: Q01DX009 (ip), vehicle: saline with Tween-80) is 112 % of control; the T/C (dose: 125.0 mg/kg/injection, schedule: Q01DX009 (ip), vehicle: other) is 120 % of control; the T/C (dose: 125.0 mg/kg/injection, schedule: Q01DX009 (ip), vehicle: saline with Tween-80) is 100 % of control; the T/C (dose: 250.0 mg/kg/injection, schedule: Q01DX009 (ip), vehicle: other) is 115 % of control; the T/C (dose: 500.0 mg/kg/injection, schedule: Q01DX009 (ip), vehicle: other) was 175 % of control; the T/C (dose: 1000.0 mg/kg/injection, schedule: Q01DX009 (ip), vehicle: saline with Tween-80) is 172 % of control.

As for `CCCCC[N+]1(CC)CCCCC1`, the T/C is 104 % of control (dose: 3.12 mg/kg/injection, schedule: Q01DX009 (ip), vehicle: saline); 106 % of control (dose: 6.25 mg/kg/injection, schedule: Q01DX009 (ip), vehicle: saline); 104 % of control (dose: 12.5 mg/kg/injection, schedule: Q01DX009 (ip), vehicle: saline).

As for `O=C1c2cccc3cc([N+](=O)[O-])cc(c23)C(=O)N1CCN1CCN(CCN2C(=O)c3cccc4cc([N+](=O)[O-])cc(c34)C2=O)CC1`, the T/C was 95 % of control (dose: 100.0 mg/kg/injection, schedule: Q04DX002 (ip), vehicle: saline with Tween-80); 98 % of control (dose: 200.0 mg/kg/injection, schedule: Q04DX002 (ip), vehicle: saline with Tween-80); 90 % of control (dose: 400.0 mg/kg/injection, schedule: Q04DX002 (ip), vehicle: saline with Tween-80).

For `CN(C)CCN1C(=O)C2C3CCC(C)(O3)C2C1=O` (configuration not stated), the T/C reads like this: (dose: 50.0 mg/kg/injection, schedule: Q01DX005 (ip), vehicle: saline) 99 % of control; (dose: 100.0 mg/kg/injection, schedule: Q01DX005 (ip), vehicle: saline) 104 % of control; (dose: 200.0 mg/kg/injection, schedule: Q01DX005 (ip), vehicle: saline) 103 % of control.

Consider `CCCCN(CCCC)CCC(=O)c1ccc(Cl)c2ccccc12`, for which the T/C runs as follows: under setting [5], 97 % of control; under setting [6], 105 % of control.

In the case of `N#CCC(=O)N/N=C(/CC1(O)C(=O)Nc2c(Cl)cc(Cl)cc21)c1ccccc1` (configuration not stated), the T/C under setting [6] was 102 % of control; the T/C under setting [7] was 100 % of control; the T/C (dose: 200.0 mg/kg/injection, schedule: Q01DX005 (ip), vehicle: saline with Tween-80) was 104 % of control.

As for `O=C(O)CC(NC(=O)CCl)c1cccs1` (configuration not stated), the T/C reads like this: (dose: 50.0 mg/kg/injection, schedule: Q01DX009 (ip), vehicle: saline) 97 % of control; (dose: 100.0 mg/kg/injection, schedule: Q01DX009 (ip), vehicle: saline) 94 % of control; (dose: 200.0 mg/kg/injection, schedule: Q01DX009 (ip), vehicle: saline) 98 % of control.

Regarding `O=C(CC(=O)C(F)(F)F)c1csc2ccccc12`, the T/C reads like this: (dose: 12.5 mg/kg/injection, schedule: Q01DX009 (ip), vehicle: saline with Tween-80) 95 % of control; (dose: 12.5 mg/kg/injection, schedule: Q04DX003 (ip), vehicle: saline with Tween-80) 100 % of control; (dose: 25.0 mg/kg/injection, schedule: Q01DX009 (ip), vehicle: saline with Tween-80) 100 % of control; (dose: 25.0 mg/kg/injection, schedule: Q04DX003 (ip), vehicle: saline with Tween-80) 100 % of control; under setting [8], 109 % of control; (dose: 50.0 mg/kg/injection, schedule: Q04DX003 (ip), vehicle: saline with Tween-80) 109 % of control.

On to `CC1(C)OC2(C)NS(=O)(=O)c3ccc(Cl)cc3N2C1=O` (configuration not stated), for which the T/C was 106 % of control under setting [8], 100 % of control under setting [9] and 98 % of control under setting [10].

Turning to `CN1c2ccccc2S(=O)(=O)n2c(CCc3ccccc3)nnc21`, the T/C is 103 % of control (dose: 15.0 mg/kg/injection, schedule: Q01DX005 (ip), vehicle: saline with Tween-80); 100 % of control (dose: 30.0 mg/kg/injection, schedule: Q01DX005 (ip), vehicle: saline with Tween-80); 87 % of control and 97 % of control (dose: 60.0 mg/kg/injection, schedule: Q01DX005 (ip), vehicle: saline with Tween-80); 90 % of control (dose: 240.0 mg/kg/injection, schedule: Q01DX005 (ip), vehicle: saline with Tween-80).

With `Clc1cncc(N2CCNCC2)n1`, the T/C runs as follows: (dose: 12.5 mg/kg/injection, schedule: Q01DX009 (ip), vehicle: Klucel (hydroxypropylcellulose) (HPC)) 100 % of control; (dose: 25.0 mg/kg/injection, schedule: Q01DX009 (ip), vehicle: Klucel (hydroxypropylcellulose) (HPC)) 99 % of control; (dose: 50.0 mg/kg/injection, schedule: Q01DX009 (ip), vehicle: Klucel (hydroxypropylcellulose) (HPC)) 108 % of control and 91 % of control.

`CC(=O)N/C(=C/c1ccccc1)C(=O)N/C(=C/c1ccccc1)C(=O)O`: the T/C by setting is: under setting [2], 101 % of control; under setting [3], 99 % of control; under setting [4], 91 % of control.

As for `C=CC1(C)OC(=NC(C)(C)CO)c2cc(C)c(OC)cc21` (configuration not stated), the T/C was 98 % of control under setting [6] and 97 % of control under setting [7].

With `CCC(C)N=Cc1ccco1` (configuration not stated), the T/C was 101 % of control under setting [1], 104 % of control under setting [2], 90 % of control under setting [3] and 99 % of control under setting [4].

As for `CC(=O)Nc1cc(N(CCOS(C)(=O)=O)CCOS(C)(=O)=O)ccc1N=O`, the T/C by setting is: (dose: 0.08 mg/kg/injection, schedule: Q01DX009 (ip), vehicle: saline) 154 % of control; (dose: 1.25 mg/kg/injection, schedule: Q04DX003 (ip), vehicle: saline sonified) 168 % of control; (dose: 2.5 mg/kg/injection, schedule: Q04DX003 (ip), vehicle: saline sonified) 177 % of control; (dose: 75.0 micrograms/kg/injection, schedule: Q01DX009 (ip), vehicle: saline) 159 % of control; (dose: 150.0 micrograms/kg/injection, schedule: Q01DX009 (ip), vehicle: saline) 159 % of control.

For the compound `Cc1csc(NN=O)n1`, the T/C (dose: 1.56 mg/kg/injection, schedule: Q01DX009 (ip), vehicle: water) is 98 % of control; the T/C (dose: 3.12 mg/kg/injection, schedule: Q01DX009 (ip), vehicle: water) is 104 % of control and 95 % of control; the T/C (dose: 6.25 mg/kg/injection, schedule: Q01DX009 (ip), vehicle: water) was 105 % of control and 96 % of control; the T/C (dose: 12.5 mg/kg/injection, schedule: Q01DX009 (ip), vehicle: water) is 100 % of control and 102 % of control; the T/C (dose: 25.0 mg/kg/injection, schedule: Q01DX009 (ip), vehicle: water) is 99 % of control and 102 % of control; the T/C (dose: 50.0 mg/kg/injection, schedule: Q01DX009 (ip), vehicle: water) was 111 % of control.

As for `CCCCCC(CN1CCOCC1)C(=O)/C=C/c1ccccc1` (configuration not stated), the T/C was 102 % of control under setting [8], 102 % of control under setting [9] and 101 % of control under setting [10].

As for `CNC(=O)OCc1c(COC(=O)NC)c2n(c1C)CS(=O)(=O)C2`, the T/C by setting is: under setting [5], 122 % of control; under setting [7], 204 % of control and 211 % of control.

As to `C[N+](C)(Cc1cccc(Cl)c1)c1nnn[n-]1`, the T/C by setting is: (dose: 100.0 mg/kg/injection, schedule: Q04DX003 (ip), vehicle: Klucel (hydroxypropylcellulose) (HPC)) 98 % of control; (dose: 200.0 mg/kg/injection, schedule: Q04DX003 (ip), vehicle: Klucel (hydroxypropylcellulose) (HPC)) 101 % of control; (dose: 400.0 mg/kg/injection, schedule: Q04DX003 (ip), vehicle: Klucel (hydroxypropylcellulose) (HPC)) 107 % of control.

For the origin of these results see PubChem BioAssay AID330 (DTP/NCI, 2004).
